Laboratory results published in US20260092054A1, “FUSED RING COMPOUND AND PHARMACEUTICAL CONTAINING SAME” (KAKEN PHARMACEUTICAL CO., LTD., priority 2022, published 2026).

Legend:
human STAT6/pIL-4Rα = target: T1, human STAT6/pIL-4Rα (Homo sapiens, UniProt P42226); assay: Binding inhibitory activity between human STAT6/pIL-4Rα by fluorescence polarization method; conditions: rhSTAT6 (123-658) / FAM-pIL-4Rα peptide
T1 construct: histidine tag
T1 sequence (P42226 123-658): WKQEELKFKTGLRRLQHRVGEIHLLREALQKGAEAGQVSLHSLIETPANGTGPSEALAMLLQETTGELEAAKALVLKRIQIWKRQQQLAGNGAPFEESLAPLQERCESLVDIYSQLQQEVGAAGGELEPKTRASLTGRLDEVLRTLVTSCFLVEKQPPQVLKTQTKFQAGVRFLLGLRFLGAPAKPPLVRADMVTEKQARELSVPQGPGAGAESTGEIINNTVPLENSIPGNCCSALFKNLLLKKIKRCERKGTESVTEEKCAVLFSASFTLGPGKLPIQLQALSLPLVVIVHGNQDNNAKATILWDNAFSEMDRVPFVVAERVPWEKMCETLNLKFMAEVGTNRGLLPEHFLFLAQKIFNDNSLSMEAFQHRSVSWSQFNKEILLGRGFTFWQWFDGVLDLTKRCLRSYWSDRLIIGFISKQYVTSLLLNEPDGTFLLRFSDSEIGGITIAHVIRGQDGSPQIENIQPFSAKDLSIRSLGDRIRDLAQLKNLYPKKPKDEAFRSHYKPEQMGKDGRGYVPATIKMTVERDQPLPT
Procedure, shortened: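 His-tagged human STAT6 (residues 123–658, E. coli-expressed) was preincubated with compound for 30 min at RT in the dark, in buffer e.g. 50 mM NaCl, 10 mM HEPES pH 7.0, 1 mM DTT, 1 mM EDTA, 0.01% NP-40. FAM-pIL-4Rα peptide was then added for 30 min. Fluorescence polarisation was read at 485/535 nm, with IC50 interpolated linearly between two points flanking 50%.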

human STAT6 = assay: Human STAT6 dependent reporter activity (IL-4 stimulated STAT6 reporter assay using STAT6-HEK293 cells); format: cell-based; conditions: IL-4 stimulation, luciferase activity; for inhibition at 0.1 µM / inhibition at 1 µM: Homo sapiens, read-out: Inhibition rate (%)

Row | SMILES | IC50 (human STAT6/pIL-4Rα) | inhibition at 0.1 µM (human STAT6; compound 0.1 μmol/L) | inhibition at 1 µM (human STAT6; compound 1 μmol/L) | Inhibition rate (%) (human STAT6; compound 0.1 μmol/L) | Inhibition rate (%) (human STAT6; compound 1 μmol/L)
1 | CCn1c(-c2ccc(-n3c(C)nn(C)c3=O)cc2)cc2cc(C(F)(F)F)cc(C(=O)Nc3cccc(-c4ncc[nH]4)c3)c21 [Ex. 118] | 0.23 µM | 95% |  |  | 
2 | COCCn1c(-c2ccc(-n3c(C)nn(C)c3=O)cc2)cc2cc(C(F)(F)F)cc(C(=O)Nc3ccc(F)c(C(N)=O)c3)c21 [Ex. 16] | 0.24 µM | 72% | 100% |  | 
3 | CCn1c(-c2ccc(-n3c(C)nn(C)c3=O)cc2)cc2cc(F)cc(C(=O)Nc3ccc(F)c(C(N)=O)c3)c21 [Ex. 18] | 0.35 µM | 80% | 99% |  | 
4 | CCn1c(-c2ccc(-n3c(C)nn(C)c3=O)cc2)cc2ccnc(C(=O)Nc3ccc(F)c(C(=O)Nc4cc(C)cn(C)c4=O)c3)c21 [Ex. 194] | 0.42 µM | 68% | 98% |  | 
5 | COCCn1c(-c2ccc(-n3c(C)nn(C)c3=O)cc2)cc2cc(C(F)(F)F)cc(C(=O)Nc3cccc(C(=O)Nc4cccc(OC)n4)c3)c21 [Ex. 173] | 0.34 µM | 43% | 100% |  | 
6 | COCCn1c(-c2ccc(-n3cnn(C)c3=O)cc2)cc2cc(C(F)(F)F)cc(C(=O)Nc3ccc(F)c(C(N)=O)c3)c21 [Ex. 41] | 0.28 µM | 92% | 100% |  | 
7 | Cc1nn(C)c(=O)n1-c1ccc(-c2cc3ccnc(C(=O)Nc4cccc(C(N)=O)c4)c3n2C)cc1 [Ex. 107] | 0.29 µM | 67% |  |  | 
8 | CCn1c(-c2ccc(-n3cnn(C)c3=O)cc2)cc2cc(C(F)(F)F)cc(C(=O)Nc3ccc(F)c(C(N)=O)c3)c21 [Ex. 45] | 0.25 µM |  |  | 63% | 100%
9 | CCn1c(-c2ccc(-n3c(C)nn(C)c3=O)nc2)cc2cccc(C(=O)Nc3cccc(C(N)=O)c3F)c21 [Ex. 145] | 0.28 µM | 53% | 97% |  | 
10 | CCn1c(-c2ccc(-n3c(C)nn(C)c3=O)cc2)cc2ccnc(C(=O)Nc3cccc(C(=O)Nc4cccn(C(F)F)c4=O)c3)c21 [Ex. 186] | 0.33 µM | 43% | 96% |  | 
11 | CCn1c(-c2ccc(-n3c(C)nn(C)c3=O)cc2)cc2ccnc(C(=O)Nc3cccc(C(=O)Nc4ccc(C)n(C)c4=O)c3)c21 [Ex. 187] | 0.34 µM | 88% |  |  | 
12 | COCCn1c(-c2ccc(-n3c(C)nn(C)c3=O)cc2)cc2ccnc(C(=O)Nc3ccc(F)c(C(N)=O)c3)c21 [Ex. 27] | 0.35 µM | 52% | 96% |  | 
13 | Cc1nn(C)c(=O)n1-c1ccc(-c2cc3ccnc(C(=O)Nc4cccc(C(N)=O)c4F)c3n2C)cc1 [Ex. 109] | 0.43 µM | 62% |  |  | 
14 | CCn1c(-c2ccc(N3C(=O)C(C)CC3C)cc2)nc2cc(C(F)(F)F)cc(C(=O)Nc3cccc(C(N)=O)c3F)c21 (single isomer, unassigned) [Ex. 219] | 0.28 µM | 32% | 96% |  | 
15 | COCCn1c(-c2ccc(-n3c(C)nn(C)c3=O)cc2)cc2cc(C(F)(F)F)cc(C(=O)Nc3cccc(C#N)c3)c21 [Ex. 52] | 0.19 µM | 52% | 100% |  | 
16 | CCn1c(-c2ccc(-n3cnn(C)c3=O)cn2)cc2cc(C(F)(F)F)cc(C(=O)Nc3cccc(C(N)=O)c3F)c21 [Ex. 65] | 0.44 µM | 50% | 98% |  | 
17 | COCCn1c(-c2ccc(-n3c(C)nn(C)c3=O)cc2)cc2cc(C(F)(F)F)cc(C(=O)Nc3cccc(C(=O)Nc4ccc(C)nn4)c3)c21 [Ex. 182] | 0.35 µM | 52% | 100% |  | 
18 | CCn1c(-c2ccc(-n3c(C)nn(C)c3=O)cc2)cc2ccnc(C(=O)Nc3cccc(C(=O)Nc4c(C)ccn(C)c4=O)c3)c21 [Ex. 188] | 0.32 µM | 44% | 97% |  | 
19 | CCn1c(-c2ccc(-n3c(C)nn(C)c3=O)cc2)cc2ccnc(C(=O)Nc3cccc(C(=O)Nc4cncn(C)c4=O)c3F)c21 [Ex. 193] | 0.42 µM | 67% | 98% |  | 
20 | Cc1nn(C)c(=O)n1-c1ccc(-c2cc3ccnc(C(=O)Nc4ccc(F)c(C(N)=O)c4)c3n2CC2CCC2)cc1 [Ex. 121] | 0.42 µM | 40% | 97% |  | 
21 | CCn1c(-c2ccc(-n3c(C)nn(C)c3=O)cc2)cc2cc(C(F)(F)F)cc(C(=O)Nc3ccc(F)c(C(N)=O)c3)c21 [Ex. 39] | 1.2 µM | 84% | 99% |  | 

Row | SMILES | IC50 (human STAT6/pIL-4Rα) | inhibition at 0.1 µM (human STAT6; compound 0.1 μmol/L) | inhibition at 1 µM (human STAT6; compound 1 μmol/L) | Inhibition rate (%) (human STAT6; compound 0.1 μmol/L) | Inhibition rate (%) (human STAT6; compound 1 μmol/L)
22 | CCn1c(-c2ccc(N3C(=O)C(C)CC3C)cc2)cc2ccnc(C(=O)Nc3ccc(F)c(C(N)=O)c3)c21 (centres unmarked) [Ex. 129] | 0.59 µM |  |  | 8% | 75%
23 | CCn1c(-c2ccc(-n3c(C)nn(C)c3=O)cc2)cc2cc(C(F)(F)F)nc(C(=O)Nc3ccc(F)c(C(N)=O)c3)c21 [Ex. 23] | 0.24 µM | 86% | 100% |  | 
24 | Cc1nn(C)c(=O)n1-c1ccc(-c2cc3ccnc(C(=O)Nc4cccc(C(N)=O)c4F)c3n2CC2(C#N)CC2)cc1 [Ex. 123] | 0.5 µM | 40% | 96% |  | 
25 | CCc1nn(C)c(=O)n1-c1ccc(-c2cc3cc(C(F)(F)F)cc(C(=O)Nc4ccc(F)c(C(N)=O)c4)c3n2CC)cc1 [Ex. 155] | 0.38 µM | 69% | 100% |  | 
26 | CCn1c(-c2ccc(-n3c(C)nn(C)c3=O)cc2)cc2ccnc(C(=O)Nc3ccc(F)c(C(=O)Nc4ccc(C)n(C)c4=O)c3)c21 [Ex. 195] | 0.29 µM | 56% |  |  | 
27 | CCn1c(-c2ccc(-n3c(C)nn(C)c3=O)cc2)cc2ccnc(C(=O)Nc3ccc(F)c(C(N)=O)c3)c21 [Ex. 21] | 0.38 µM | 73% | 98% |  | 
28 | Cc1nn(C)c(=O)n1-c1ccc(-c2cc3ccnc(C(=O)Nc4ccc(F)c(C(N)=O)c4)c3n2CC2CC2)cc1 [Ex. 24] | 0.32 µM | 54% | 98% |  | 
29 | COCCn1c(-c2ccc(-n3c(C)nn(C)c3=O)cc2)cc2cc(C(F)(F)F)cc(C(=O)Nc3nnc(C)s3)c21 [Ex. 84] | 0.24 µM | 93% | 100% |  | 
30 | CCn1c(-c2ccc(-n3c(C)nn(C)c3=O)cc2)cc2c(F)ccc(C(=O)Nc3ccc(F)c(C(N)=O)c3)c21 [Ex. 76] | 0.36 µM | 31% | 94% |  | 
31 | CCn1c(-c2ccc(N3C(=O)C(C)CC3C)cc2)cc2cc(C(F)(F)F)cc(C(=O)Nc3cccc(C(N)=O)c3F)c21 (centres unmarked) [Ex. 161] | 0.87 µM | 86% | 99% |  | 
32 | CCn1c(-c2ccc(-n3c(C)nn(C)c3=O)cc2)cc2cc(C)cc(C(=O)Nc3ccc(F)c(C(N)=O)c3)c21 [Ex. 32] | 0.42 µM | 91% | 100% |  | 
33 | CCn1c(-c2ccc(-n3c(C)nn(C)c3=O)cc2)cc2cc(C#N)cc(C(=O)Nc3ccc(F)c(C(N)=O)c3)c21 [Ex. 50] | 0.56 µM | 42% | 99% |  | 
34 | CCn1c(-c2ccc(-n3c(C)nn(C)c3=O)nn2)cc2cc(C(F)(F)F)cc(C(=O)Nc3cccc(C(N)=O)c3F)c21 [Ex. 127] | 0.25 µM | 38% | 99% |  | 
35 | COCCn1c(-c2ccc(-n3c(C)nn(C)c3=O)cc2)cc2cc(C(F)(F)F)cc(C(=O)Nc3cccnc3OC)c21 [Ex. 70] | 0.76 µM | -6% | 45% |  | 
36 | CCn1c(-c2ccc(N3C(=O)C(C)CC3C)cc2)cc2ccnc(C(=O)Nc3ccc(F)c(C(N)=O)c3)c21 (centres unmarked) [Ex. 130] | 0.36 µM |  |  | 74% | 96%
37 | CCn1c(-c2ccc(N3CCCC3=O)cc2)cc2cc(C(F)(F)F)cc(C(=O)Nc3ccc(F)c(C(N)=O)c3)c21 [Ex. 146] | 0.75 µM | 55% | 87% |  | 
38 | Cc1nn(C)c(=O)n1-c1ccc(-c2cc3ccnc(C(=O)Nc4cccc(C(=O)Nc5cccn(C)c5=O)c4)c3n2CC2(C#N)CC2)cc1 [Ex. 200] | 0.23 µM | 53% | 99% |  | 
39 | CCn1c(-c2ccc(-n3c(C)nn(C)c3=O)cc2)cc2ccnc(C(=O)Nc3cccc(C(=O)Nc4cc(Cl)n(C)n4)c3)c21 [Ex. 198] | 0.41 µM | 96% |  |  | 
40 | COCCn1c(-c2ccc(-n3c(C)nn(C)c3=O)cc2)cc2ccnc(C(=O)Nc3cccc(C(=O)Nc4cccn(C)c4=O)c3)c21 [Ex. 196] | 0.27 µM | 81% |  |  | 
41 | CCn1c(-c2ccc(-n3c(C)nn(C)c3=O)cc2)cc2nc(C(F)(F)F)cc(C(=O)Nc3cccc(C(N)=O)c3F)c21 [Ex. 75] | 0.36 µM | 36% | 93% |  | 
